# Data reported in patent US6566140B2, “Inhibition of coagulation in blood and blood products” (University of Vermont and State Agriculture College, priority 1998, dated 2003).
# Legend:
# [1] = tested on: tissue factor initiated clotting of recalcified citrated plasma; assay: extended plasma prothrombin time (XpPT) assay; format: biochemical, human; conditions: for clot time of patient plasma: patients on Coumadin therapy, 0.5 nM TF, 100 μg/ml CTI; for XpPT clot time of patient plasma (s.e.m.): patients on moderate Coumadin therapy, 0.5 nM tissue factor
# Experimental: The result was a standard system of coagulation evaluation in which a plasma sample collected in 11 mM trisodium citrate was frozen (standard pathology laboratory collection system) defrosted in the presence of 100 μgm/ml corn trypsin inhibitor (final concentration) and the assay ultimately conducted described in Materials and Methods section below. The final concentrations in the tissue factor clotting sample included 100 μgm/ml CTI 30 mM CaCl2, 50 μM 75% PC:25PS vesicles and 0.5 nM tissue factor. This system is referred to as the XpPT assay.
# To study the effects of heparin, 0-3 U/mL (10,000 u/mL stock) were titrated into normal, CTI (100 μg/mL), citrated plasma. Into reaction cuvettes, […] of plasma, 10 μL of 300 mM CaCl2 (final, 30 mM) and […] of 3.72 mM PCPS (final concentration, 50 μM) were added. Appropriate volumes of heparin (10,000 U/mL) were added to give 0.25, 0.5, 1.0, 1.5, 2.0, and 3.0 U/mL final concentration in 100 μL plasma. The reaction was initiated by adding 10 μL of 5 nM rTF (0.5 nM final concentration).
# The assay was used along lines discussed previously except that TFPI was added (50 μg/mL stock) at 5.0, 10.0, 20.0, 60 nM final concentration and initiating with 10 μL of 5.0 nM rTF (0.5 nM).
# Citrated platelet poor plasma (PPP) from a normal pool, patient cohorts, or factor V, VII, VIII and IX deficient pools was treated with 3.7 μL of 2.72 mg/mL (100 μg/mL final concentration) corn trypsin inhibitor (CTI) prior to thawing at 37° C. The thawed plasma was spun at 16,000×g (Eppendorf model 5415-C bench top centrifuge) for 10 minutes. Clot times were done by either a manual, tilt-tube method or using a Stago ST-4 detector. (Results were equivalent with each method.) For both methods test tubes made of clear polystyrene or similar clear plastic were used.
# Reaction cuvettes for the ST4 clot detector were equilibrated to 37° C. (3 minutes) in the appropriate incubation chambers. Calcium equilibration was started by adding 10 μL of 300 mM CaCl2 (final, 30 mM) to 100 μL of the CTI treated citrated PPP (normal, patient or deficient) for 15 seconds followed by 1.3 μL of 3.72 mM PCPS (25:75 PC/PS) (final concentration, 50 μM) 15 seconds. The reaction was initiated by adding 10 μL of 5.0 nM rTF (final 0.5 nM TF) or 2.5 μL of 0.5 nM rTF (12.5 pM final). End point clot times were determined visually or mechanically on the ST4 using the PTT mode, no incubation, with an upper end timing limit of 999 seconds.
# [2] = tested on: tissue factor initiated clotting of platelet poor plasma; assay: plasma clotting assay using CTI (Example 3); format: biochemical, human; conditions: patients on stabilized coumadin therapy
# Experimental: Blood was drawn directly into sterile buffered 3.8% sodium citrate tubes (Vacutainer brand, product # L10318-00, Becton-Dickinson and Co.), and the tubes were centrifuged at 4227 RCF for 3 minutes (Baxter Stat 60 bench top centrifuge). The supernatant was decanted and an automated PT was established for each patient sample. Platelet poor samples were isolated by further centrifugation for 10 minutes at 14,000 rpm, and the top two-thirds of the plasma was transferred to a Sarstedt rectic cup where it was stored for subsequent analysis at −80° C. Prior to thawing, CTI (stock concentration 1-5 mg/mL) was layered onto the frozen sample in an amount sufficient to give a final concentration of 100 μg CTI/mL plasma. Such citrated plasma containing CTI was used within 0-2 hours (stored at 2-8° C.).
# Platelet poor plasma collected as described in Example 1 or 2 from either patients or normal donors, was delivered (100 μL) into a 12×75 mm disposable polystryrene tube (VWR Scientific, product #60818-361). Calcium chloride (10 μL, 300 mM CaCl2) was added, followed immediately by an amount of concentrated PSPC (prepared as described above, typical stock concentration ˜1-5 mM in HBS, pH 7.4) so that the final concentration of lipid in the mixture was […]. To initiate the reaction at zero time, 20 μL of stock tissue factor reagent (described below) was added to a final TF concentration of 1 nM. […]
smiles,measurement,setting,value
CC(=O)CC(c1ccccc1)c1c(O)c2ccccc2oc1=O (stereo not drawn) [Coumadin],clot time of patient plasma,"[1]; INR of 2, normal 82±6s",211 ± 8 s
same,clot time of patient plasma,[1]; INR of 4.3,616 ± 9 s
same,XpPT clot time of patient plasma (s.e.m.),"[1]; INR of 2.0, normal 82.5±0.63 seconds",212.6 ± 2.2 s
same,XpPT clot time of patient plasma (s.e.m.),[1]; INR of 4.3,610.8 ± 4.2 s
same,clot time of patient plasma,"[2]; INR of 2.0, normal (INR 1) 60-75 seconds",215 to 240 s
same,clot time of patient plasma,[2]; INR of 5.0,700 to 800 s
